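Grown in 96-well plates, cells were treated for 48 hours with each compound at five concentrations. Insufficient inhibition: endpoint recorded as highest concentration tested. GI50 marks 50% less growth. TGI marks complete inhibition of growth.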
Key:
Experiment in all cases: growth of human tumour cells (NCI), 48 h
MALME-3M melanoma = tested on: MALME-3M melanoma
ACHN renal = tested on: ACHN renal
T-47D breast = tested on: T-47D breast
SN12C renal = tested on: SN12C renal
EKVX NSCLC = tested on: EKVX NSCLC
BT-549 breast = tested on: BT-549 breast
OVCAR-8 ovarian = tested on: OVCAR-8 ovarian
CAKI-1 renal = tested on: CAKI-1 renal
CCRF-CEM leukemia = tested on: CCRF-CEM leukemia
NCI-H522 lung = tested on: NCI-H522 lung
TK-10 renal = tested on: TK-10 renal
U251 CNS = tested on: U251 CNS
SF-539 CNS = tested on: SF-539 CNS
HT29 colon = tested on: HT29 colon
M14 melanoma = tested on: M14 melanoma
HOP-62 NSCLC = tested on: HOP-62 NSCLC
786-0 renal = tested on: 786-0 renal
A498 renal = tested on: A498 renal
OVCAR-5 ovarian = tested on: OVCAR-5 ovarian
MDA-MB-231 breast = tested on: MDA-MB-231 breast
MOLT-4 leukemia = tested on: MOLT-4 leukemia
SK-MEL-5 melanoma = tested on: SK-MEL-5 melanoma
OVCAR-4 ovarian = tested on: OVCAR-4 ovarian
PC-3 prostate = tested on: PC-3 prostate
HL-60(TB) leukemia = tested on: HL-60(TB) leukemia
MCF7 breast = tested on: MCF7 breast
SK-OV-3 ovarian = tested on: SK-OV-3 ovarian
KM12 colon = tested on: KM12 colon
NCI-H226 lung = tested on: NCI-H226 lung
DU-145 prostate = tested on: DU-145 prostate
SNB-19 CNS = tested on: SNB-19 CNS
NCI-H460 lung = tested on: NCI-H460 lung
IGROV1 ovarian = tested on: IGROV1 ovarian
HCT-116 colon = tested on: HCT-116 colon
NCI/ADR-RES ovarian = tested on: NCI/ADR-RES ovarian
RPMI-8226 leukemia = tested on: RPMI-8226 leukemia
NCI-H23 lung = tested on: NCI-H23 lung
SK-MEL-28 melanoma = tested on: SK-MEL-28 melanoma
OVCAR-3 ovarian = tested on: OVCAR-3 ovarian
UACC-257 melanoma = tested on: UACC-257 melanoma
SNB-75 CNS = tested on: SNB-75 CNS
HCT-15 colon = tested on: HCT-15 colon
LOX IMVI melanoma = tested on: LOX IMVI melanoma
HS 578T breast = tested on: HS 578T breast
A549 NSCLC = tested on: A549 NSCLC
SF-295 CNS = tested on: SF-295 CNS
SR leukemia = tested on: SR leukemia
SK-MEL-2 melanoma = tested on: SK-MEL-2 melanoma
UACC-62 melanoma = tested on: UACC-62 melanoma
COLO 205 colon = tested on: COLO 205 colon
SF-268 CNS = tested on: SF-268 CNS
UO-31 renal = tested on: UO-31 renal
K-562 leukemia = tested on: K-562 leukemia
SW-620 colon = tested on: SW-620 colon
MDA-MB-435 = tested on: MDA-MB-435
HCC-2998 colon = tested on: HCC-2998 colon
RXF 393 renal = tested on: RXF 393 renal

## Cc1cc2c(cc1C)[n+](=O)c(C(=O)C(C)(C)C)c(C(F)(F)F)n2[O-]
MALME-3M melanoma
  GI50: 24.2 µM
  TGI: 68.1 µM
ACHN renal
  GI50: 16.1 µM
  TGI: 34.5 µM
T-47D breast
  GI50: 32.3 µM
  TGI: > 100 µM
SN12C renal
  GI50: 14.1 µM
  TGI: 62.7 µM
EKVX NSCLC
  GI50: 2.91 µM
  TGI: 9.95 µM
BT-549 breast
  GI50: 12 µM
  TGI: 50.5 µM
OVCAR-8 ovarian
  GI50: 3.62 µM
  TGI: 15.5 µM
CAKI-1 renal
  GI50: 21.3 µM
  TGI: 55 µM
CCRF-CEM leukemia
  GI50: 12.3 µM
  TGI: 49.3 µM
NCI-H522 lung
  GI50: 18.9 µM
  TGI: 49.6 µM
TK-10 renal
  GI50: 75.4 µM
  TGI: > 100 µM
U251 CNS
  GI50: 20.8 µM
  TGI: > 100 µM
SF-539 CNS
  GI50: 16.6 µM
  TGI: 41.9 µM
HT29 colon
  GI50: 31.7 µM
  TGI: > 100 µM
M14 melanoma
  GI50: 27.5 µM
  TGI: 80.8 µM
HOP-62 NSCLC
  GI50: 17 µM
  TGI: 59.1 µM
786-0 renal
  GI50: 29.4 µM
  TGI: > 100 µM
A498 renal
  GI50: 18.1 µM
  TGI: 44.1 µM
OVCAR-5 ovarian
  GI50: 8.51 µM
  TGI: 54.2 µM
MDA-MB-231 breast
  GI50: 13.6 µM
  TGI: 37.5 µM
MOLT-4 leukemia
  GI50: 8.2 µM
  TGI: 29.3 µM
SK-MEL-5 melanoma
  GI50: 12.5 µM
  TGI: 26.9 µM
OVCAR-4 ovarian
  GI50: 26.7 µM
  TGI: > 100 µM
PC-3 prostate
  GI50: 6.24 µM
  TGI: 39.2 µM
HL-60(TB) leukemia
  GI50: 5.9 µM
  TGI: 24.5 µM
MCF7 breast
  GI50: 20.8 µM
  TGI: 77.7 µM
SK-OV-3 ovarian
  GI50: 50 µM
  TGI: > 100 µM
KM12 colon
  GI50: 25 µM
  TGI: 62.1 µM
NCI-H226 lung
  GI50: 16.2 µM
  TGI: 70.6 µM
DU-145 prostate
  GI50: 5.45 µM
  TGI: 19.5 µM
SNB-19 CNS
  GI50: 56.2 µM
  TGI: > 100 µM
NCI-H460 lung
  GI50: 13.7 µM
  TGI: 34 µM
IGROV1 ovarian
  GI50: 5.17 µM
  TGI: 20.3 µM
HCT-116 colon
  GI50: 10.6 µM
  TGI: > 100 µM
NCI/ADR-RES ovarian
  GI50: 9.08 µM
  TGI: 27.5 µM
RPMI-8226 leukemia
  GI50: 3.57 µM
  TGI: 15.4 µM
NCI-H23 lung
  GI50: 16.1 µM
  TGI: 47.6 µM
SK-MEL-28 melanoma
  GI50: > 100 µM
  TGI: > 100 µM
OVCAR-3 ovarian
  GI50: 21.2 µM
  TGI: 50.1 µM
UACC-257 melanoma
  GI50: 7.71 µM
  TGI: 41.2 µM
SNB-75 CNS
  GI50: 45.9 µM
  TGI: > 100 µM
HCT-15 colon
  GI50: 13.7 µM
  TGI: 55.6 µM
LOX IMVI melanoma
  GI50: 9.53 µM
  TGI: 25.7 µM
HS 578T breast
  GI50: 14.4 µM
  TGI: 58.6 µM
A549 NSCLC
  GI50: 8.61 µM
  TGI: 26.2 µM
SF-295 CNS
  GI50: 28.8 µM
  TGI: 85.4 µM
SR leukemia
  GI50: 11.5 µM
  TGI: 33.2 µM
SK-MEL-2 melanoma
  GI50: 25.6 µM
  TGI: 58.7 µM
UACC-62 melanoma
  GI50: 17 µM
  TGI: 71.5 µM
COLO 205 colon
  GI50: 54.4 µM
  TGI: > 100 µM
SF-268 CNS
  GI50: 16.6 µM
  TGI: 82.5 µM
UO-31 renal
  GI50: 17.4 µM
  TGI: 33.2 µM
K-562 leukemia
  GI50: 4.3 µM
  TGI: 19.9 µM
SW-620 colon
  GI50: 28.4 µM
  TGI: > 100 µM
MDA-MB-435
  GI50: 28.2 µM
  TGI: 78.9 µM

## Nc1ncc(-c2ccc3ncnc(N4CCc5ccc(Cl)cc54)c3c2)cn1
ACHN renal
  GI50: 0.584 µM
  TGI: > 100 µM
T-47D breast
  GI50: 0.313 µM
  TGI: 30 µM
SN12C renal
  GI50: 0.813 µM
  TGI: > 100 µM
BT-549 breast
  GI50: 0.603 µM
  TGI: 8.51 µM
OVCAR-8 ovarian
  GI50: 1.84 µM
  TGI: > 100 µM
CAKI-1 renal
  GI50: 1.19 µM
  TGI: > 100 µM
CCRF-CEM leukemia
  GI50: 1.02 µM
  TGI: > 100 µM
NCI-H522 lung
  GI50: 2.66 µM
  TGI: 15.8 µM
TK-10 renal
  GI50: 0.354 µM
  TGI: 3.85 µM
U251 CNS
  GI50: 2.46 µM
  TGI: > 100 µM
SF-539 CNS
  GI50: 1.11 µM
  TGI: 3.79 µM
HCC-2998 colon
  GI50: 1.5 µM
  TGI: 87.2 µM
HT29 colon
  GI50: 1.06 µM
  TGI: 82.6 µM
M14 melanoma
  GI50: 1.88 µM
  TGI: > 100 µM
HOP-62 NSCLC
  GI50: 0.743 µM
  TGI: > 100 µM
A498 renal
  GI50: 0.248 µM
  TGI: 0.8 µM
OVCAR-5 ovarian
  GI50: 0.532 µM
  TGI: > 100 µM
MDA-MB-231 breast
  GI50: 0.994 µM
  TGI: > 100 µM
MOLT-4 leukemia
  GI50: 0.563 µM
  TGI: 3.81 µM
SK-MEL-5 melanoma
  GI50: 1.46 µM
  TGI: 4.94 µM
OVCAR-4 ovarian
  GI50: 1.61 µM
  TGI: 24.8 µM
PC-3 prostate
  GI50: 0.739 µM
  TGI: > 100 µM
MCF7 breast
  GI50: 0.684 µM
  TGI: 31.7 µM
RXF 393 renal
  GI50: 0.606 µM
  TGI: 3 µM
SK-OV-3 ovarian
  GI50: 1.37 µM
  TGI: 7.03 µM
KM12 colon
  GI50: 2.34 µM
  TGI: 97.6 µM
NCI-H226 lung
  GI50: 1.35 µM
  TGI: 27.4 µM
DU-145 prostate
  GI50: 0.971 µM
  TGI: > 100 µM
SNB-19 CNS
  GI50: 2.55 µM
  TGI: > 100 µM
NCI-H460 lung
  GI50: 1.46 µM
  TGI: > 100 µM
IGROV1 ovarian
  GI50: 0.291 µM
  TGI: 2.34 µM
HCT-116 colon
  GI50: 1.68 µM
  TGI: 10.8 µM
NCI/ADR-RES ovarian
  GI50: 1.86 µM
  TGI: > 100 µM
RPMI-8226 leukemia
  GI50: 0.584 µM
  TGI: 4.44 µM
NCI-H23 lung
  GI50: 1.9 µM
  TGI: > 100 µM
SK-MEL-28 melanoma
  GI50: 2.01 µM
  TGI: > 100 µM
OVCAR-3 ovarian
  GI50: 1.88 µM
  TGI: > 100 µM
UACC-257 melanoma
  GI50: 2.98 µM
  TGI: > 100 µM
SNB-75 CNS
  GI50: 0.418 µM
  TGI: 3.98 µM
HCT-15 colon
  GI50: 1.33 µM
  TGI: > 100 µM
LOX IMVI melanoma
  GI50: 0.87 µM
  TGI: 23.5 µM
HS 578T breast
  GI50: 0.437 µM
  TGI: 4.39 µM
A549 NSCLC
  GI50: 1.26 µM
  TGI: > 100 µM
SF-295 CNS
  GI50: 1.03 µM
  TGI: 6.89 µM
SR leukemia
  GI50: 1.04 µM
  TGI: 18.1 µM
SK-MEL-2 melanoma
  GI50: 1.56 µM
  TGI: 4.53 µM
UACC-62 melanoma
  GI50: 1.31 µM
  TGI: 5.98 µM
COLO 205 colon
  GI50: 2.01 µM
  TGI: 9.53 µM
SF-268 CNS
  GI50: 1.63 µM
  TGI: > 100 µM
K-562 leukemia
  GI50: 2.22 µM
  TGI: > 100 µM
SW-620 colon
  GI50: 2.83 µM
  TGI: > 100 µM
MDA-MB-435
  GI50: 2.19 µM
  TGI: > 100 µM

— PubChem BioAssay (NCI)
